We go through 13 molecules from ChEMBL document CHEMBL5376003, “Structure-Activity Relationship of FL118 Platform Position 7 Versus Position 9-Derived Compounds and Their Mechanism of Action and Antitumor Activity” (J Med Chem, 2023).

Holding throughout (type): functional, cell-based
The subject of one test is A549. The test is described as follows: Growth inhibition of human A549 cells incubated for 48 hrs by MTT reagent based ELISA reader analysis. Conditions: A549, 48 h.
The test system of a further test is HeLa. The experiment in a line: Growth inhibition of human HeLa cells incubated for 48 hrs by MTT reagent based ELISA reader analysis. Background: Tetrazolium assays rely on reduction of a dye to a coloured formazan, in cell work by metabolically active cells.
The test system of a further test is HepG2. The experiment in a line: Growth inhibition of human HepG2 cells incubated for 48 hrs by MTT reagent based ELISA reader analysis. Conditions: HepG2, 48 h.
Another test concerns HCT-116. The experiment in a line: Growth inhibition of human HCT-116 cells incubated for 48 hrs by MTT reagent based ELISA reader analysis. Conditions: HCT-116, 48 h.
A further test has as its system MCF7. The test is described as follows: Growth inhibition of human MCF7 cells incubated for 48 hrs by MTT reagent based ELISA reader analysis. To be noted: MCF7, 48 h.

A value given as a limit tells only on which side of the number the result lay.

For the molecule `CCOc1ccc(-c2c3c(nc4cc5c(cc24)OCO5)-c2cc4c(c(=O)n2C3)COC(=O)[C@]4(O)CC)cc1`, the IC50 (usually the concentration that inhibits the measured activity by half) in the test on A549 is 61.2 nM; in the test on HeLa, 63.2 nM; in the test on HepG2 it was above 1000 nM; in the test with HCT-116, 226 nM; in the test on MCF7, 64 nM.

As to `CC[C@@]1(O)C(=O)OCc2c1cc1n(c2=O)Cc2c-1nc1cc3c(cc1c2-c1cccc(OC(C)C)c1)OCO3`, the IC50 in the test on A549 was determined as 400 nM; in the test with HeLa, 143 nM; in the test with HepG2 it was 1000 nM; with HCT-116, 793 nM; in the test with MCF7, 64.1 nM.

`CCCOc1ccc(-c2c3c(cc4nc5c(cc24)Cn2c-5cc4c(c2=O)COC(=O)[C@]4(O)CC)OCO3)cc1`: the IC50 with A549 was 1000 nM; in the test on HeLa, 532 nM; in the test on HepG2, above 1000 nM; in the test on HCT-116, 564 nM; in the test on MCF7, above 1000 nM.

Take `CC[C@@]1(O)C(=O)OCc2c1cc1n(c2=O)Cc2c-1nc1cc3c(cc1c2-c1cccc(SC)c1)OCO3`: the half-inhibitory concentration (IC50) in the test with A549 is 132 nM; in the test on HeLa, 125 nM; in the test on HepG2 it was 78.6 nM; with HCT-116 it was 46.1 nM; in the test with MCF7, 34.6 nM.

In the case of `CC[C@@]1(O)C(=O)OCc2c1cc1n(c2=O)Cc2c-1nc1cc3c(cc1c2-c1ccc2c(c1)OCO2)OCO3`, the IC50 in the test with A549 worked out at 84.6 nM; in the test with HeLa it was 475 nM; in the test with HepG2, 61.1 nM; in the test on HCT-116 it was 36.7 nM; in the test with MCF7, 35.5 nM.

With `CC[C@@]1(O)C(=O)OCc2c1cc1n(c2=O)Cc2cc3c(-c4ccc(C)c(C)c4)c4c(cc3nc2-1)OCO4`, the IC50 was 259 nM with A549; above 1000 nM in the test on HeLa; above 1000 nM in the test on HepG2; 774 nM with HCT-116; above 1000 nM with MCF7.

Regarding `CC[C@@]1(O)C(=O)OCc2c1cc1n(c2=O)Cc2c-1nc1cc3c(cc1c2-c1cccc(OC)c1)OCO3`, the IC50 in the test on A549 turned out to be 21.4 nM; in the test with HeLa, 88.3 nM; in the test with HepG2, 14.8 nM; with HCT-116, 48.5 nM; with MCF7, 95.8 nM.

Regarding `CCCCOc1ccc(-c2c3c(nc4cc5c(cc24)OCO5)-c2cc4c(c(=O)n2C3)COC(=O)[C@]4(O)CC)cc1`, the IC50 with A549 is above 1000 nM; in the test on HeLa it was above 1000 nM; with HepG2, above 1000 nM; in the test with HCT-116 it was 235 nM; in the test with MCF7 it was above 1000 nM.

Consider `CC[C@@]1(O)C(=O)OCc2c1cc1n(c2=O)Cc2cc3c(-c4cc(C)cc(C)c4)c4c(cc3nc2-1)OCO4`, for which the 50% inhibitory concentration (IC50) in the test with A549 was found to be 107 nM; in the test with HeLa it was 115 nM; in the test with HepG2 it was 292 nM; in the test on HCT-116, 709 nM; with MCF7, 160 nM.

For `CC[C@@]1(O)C(=O)OCc2c1cc1n(c2=O)Cc2c-1nc1cc3c(cc1c2-c1ccc(SC)cc1)OCO3`, the IC50 was 27.3 nM in the test with A549; 58.7 nM in the test on HeLa; 51.9 nM in the test with HepG2; 61.8 nM in the test on HCT-116; 53.4 nM with MCF7.

`CC[C@@]1(O)C(=O)OCc2c1cc1n(c2=O)Cc2c-1nc1cc3c(cc1c2-c1cc(OC)c(OC)c(OC)c1)OCO3`: the concentration for half-maximal inhibition (IC50) in the test with A549 was 140 nM; in the test on HeLa it was 200 nM; with HepG2 it was 738 nM; in the test with HCT-116, 39.6 nM; with MCF7, 101 nM.

Regarding `CC[C@@]1(O)C(=O)OCc2c1cc1n(c2=O)Cc2cc3c(-c4cccc(OC)c4)c4c(cc3nc2-1)OCO4`, the IC50 was 990 nM in the test with A549; above 1000 nM with HeLa; above 1000 nM in the test on HepG2; above 1000 nM with HCT-116; above 1000 nM in the test on MCF7.

With `CC[C@@]1(O)C(=O)OCc2c1cc1n(c2=O)Cc2cc3c(-c4cc(OC)c(OC)c(OC)c4)c4c(cc3nc2-1)OCO4`, the IC50 in the test on A549 came to 1000 nM; in the test on HeLa, 140 nM; in the test on HepG2, 952 nM; in the test on HCT-116 it was 136 nM; with MCF7 it was 757 nM.
